In brackets after ≈: the same amount, converted by molar mass. Where two headings read alike, the source gives them in different places.
Test system: Bacillus subtilis DSM 10
Test: Antimicrobial serial dilution assay (MIC)
Type: cell-based
Settings: overnight
Protocol: Antimicrobial activity was determined by our established protocol, according to Becker et al.. In general, all of the pure compounds were dissolved in MeOH with a concentration of 1 mg/mL. Assessment of the antimicrobial activity was determined using the serial dilution assay method to calculate the minimum inhibitory concentration (MIC). In this method, the compounds were diluted in a range between 67 and 0.5 µg/mL in 96 well-plate and incubated with the test organism overnight. The next day, growth of the test organisms was visually observed, and MIC was determined in the lowest concentration where a clear zone (no growth of test organism) was observed. In our attempt for novel anti-infective compounds, an established standard protocol using various organisms representing a broad spectrum of pathogens of clinical interest, as well as sensitive indicator strains, was used (bacteria: Bacillus subtilis DSM 10, Staphylococcus aureus DSM 346, Acinetobacter baumanii DSM 30008, Chromobacterium violaceum DSM 30191, Escherichia coli DSM 1116 and Pseudomonas aeruginosa PA14; mycobacteria: Mycobacterium smegmatis ATCC 700084 and fungi: Candida albicans DSM 1665, Schizosaccharomyces pombe DSM 70572, Mucor hiemalis DSM 2656, Wickerhamomyces anomala DSM 6766 and Rhodotorula glutinis DSM 10134). Methanol as a solvent to dissolve the pure compounds was used as the negative control. Oxytetracycline, ciprofloxacin, gentamycin, and kanamycin were used as positive controls against bacteria, whereas nystatin was used against fungi. A detailed experimental procedure can be found in the SI.
Protocol: Antimicrobial Activity Assay
The assay was conducted as a minimum inhibitory concentration (MIC) assay in 96-well round- bottom microtiter plates using the parameters summarized in Table S1 and as already described in [S1]. Stocks of the test organisms were generated by growing the organisms overnight in 50 mL shaking flasks filled with 25 mL of the growth medium at 140r p m ( media and temperatures see Table S1). If the organisms were well grown the next day, which was checked by the occurrence of an optical density (OD) […] of the suspension (OD600 nm for bacteria, OD548 nm for fungi and M. smegmatis), aliquots of these were stored in 1.5 mL reaction tubes in a freezer at −80 °C for up to 12 months. Upon use, aliquots were unthawed and the OD of the suspension measured and adjusted by diluting with the respective growth medium. OD600 nm was adjusted to 0.01 and OD548 nm to 0.1. Subsequently, 150 μ L of the adj usted suspensions were added to all wells of a 96-well microtiter plate (one test organism per plate). In row A, additional 130 μ L of suspensions plus 20 μ L of the test compounds (1 mg/mL) and the controls (one compound/column) were added. MeOH was used as negative controls, while different positive controls (references) were used for the test organisms (see Table S1). Then, starting from row A, 150 μ L of t he suspension were transferred to the next row, the contents thoroughly mixed, and 150 μ L transferred to the following row. The remaining 150 μ L after row H were discarded. […]
of the test compounds, ranging from 66.7 μg/mL in row A to 0.52 μ g/mL in row H. The microtiter plates were then incubated overnight on a microplate shaker at 800 rpm at 30 or 37 °C (see Table S1) and were visually evaluated the next day. The MIC is defined as the lowest concentration where no growth of the test organism (clear zone) was observed. A lower MIC thus corresponds to a higher antimicrobial activity of the test compound.
Table S1: MIC assay experiment parameters test organism strain No growth incubation positive control
Bacillus subtilis DSM10 MHB1 30 oxytetracyclin 1.0mg/ mL […]
Candidaa lbicans DSM1665 MYC3 30 nystatin 1.0mg/ mL
Schizosaccharomyces DSM70572 MYC3 30 nystatin 1.0mg/ mL
Mucor hiemalis DSM2656 MYC3 30 nystatin 1.0mg/ mL
Wickerhamomyces DSM6766 MYC3 30 nystatin 1.0mg/ mL
Rhodotorula glutinis DSM10134 MYC3 30 nystatin 1.0mg/ mL […]

[1] = serial dilution 67 to 0.5 µg/mL

| MIC [1] | MIC (DSM10, serial dilution 67 to 0.5 µg/mL, read-out: MIC) [µg/mL] | SMILES |
| --- | --- | --- |
| n.i |  | CC1=CC2CC(C)CCC2C2(C)C(=O)OC(C(=O)O)C(C)C12 (centres unmarked) [compound 3, Colposetin C] |
| n.i |  | CC(C=CCC(C)C=CC=C(C)C(=O)C1=C(O)C(C)N(C)C1=O)=CC(C)C(O)C(=O)O (centres unmarked) [compound 5, Colpomenoic acid B] |

The remaining lines, values behind:

| SMILES | MIC [1] | MIC (DSM10, serial dilution 67 to 0.5 µg/mL, read-out: MIC) [µg/mL] |
| --- | --- | --- |
| CC(=O)OC(C(=O)O)C(C)C1C(C)=CC2CC(C)CCC2C1(C)C(O)=C1C(=O)C(C)N(C)C1=O (centres unmarked) [compound 1, Colposetin A] | n.i |  |
| CCC(C(=O)O)C1C(C)=CC2CC(C)CCC2C1(C)C(O)=C1C(=O)C(C)N(C)C1=O (centres unmarked) [compound 2, Colposetin B] |  | 67 (≈ 160 µM) |
| CC(C=CCC(C)CCC=C(C)C(=O)C1=C(O)C(C)N(C)C1=O)=CC(C)C(O)C(=O)O (centres unmarked) [compound 4, Colpomenoic acid A] | n.i |  |
